Values quoted from earlier work in patent publication US20040089561A1, “Method and package for storing a pressurized container containing a drug” (priority 1999, published 2004).

Details: water in the propellant

Structure (SMILES) | maximum water solubility
FC(F)(Cl)Cl [CFC 12] | about 130 ppm
FC(F)(Cl)C(F)(F)Cl [CFC 114] | about 130 ppm
FCC(F)(F)F [HFC 134a] | about 2200 ppm
